From US8049014B2, “Aminoquinoline derivatives, preparation method thereof and pharmaceutical composition comprising the same” (Korea Institute of Science and Technology, priority 2009, dated 2011) come the findings set out here.

The GI50 is the concentration giving 50% growth inhibition. Read a high GI50 as less potent growth inhibition.

One test has as its system HS27 fibroblasts. Kind of test: Inhibition of proliferation of HS27 fibroblasts (selectivity, MTT reduction assay). In kind it is cell-based. Particulars: Homo sapiens. The method, then:
(§1) 10% of fetal bovine serum (FBS) and 1% of penicillin/streptomycin were put into a Dulbecco's Modified Eagle (DMEM) medium, and A375P tumor cells obtained from ATCC was incubated in the above medium under a 5% CO2 atmosphere at 37° C. A375P cells were taken into 0.05% trypsin-0.02% ethylene-diamine tetraacetic acid (EDTA) and seeded it into wells of 96 well plate with 5×10^3 cells/well, and the viability of the cells was determined with a conventional [3-(4,5-dimethylthiazol-2-yl)-2,5-diphenyltetrazolium bromide, MTT] reduction assay. In the MTT efficacy experimentation, 15 μL of dye per well was put into the wells in accordance with the protocol of CellTiter 96® Assay (Promega), and then incubated for two hours, into which 100 μL of stop solution was added. The resultant was read after 24 hours. After one day of the plating, the obtained material was treated with a compound of the present invention. When it was treated with the compound, 10 mM of stock solution was prepared, and gradually diluted to one-third in dimethyl sulfoxide (DMSO). A test compound plate was prepared with 12 points, into which 0.5 μL was put (final concentration was DMSO 0.5%). Absorbance was read at a wavelength of 590 nm using EnVision 2103 (Perkin Elmer Boston, Mass., US), and GI50 values were calculated using GraphPad Prism 4.0 software.
(§2) GI50 values indicating inhibition of the compounds according to the examples of the present invention and control substances, on the proliferation of A375 melanoma tumor cells and HS27 fibroblasts. Sorafenib (BAY43-9006, Nexavar) which has been known as a substance having a good anti-proliferative effect on the melanoma tumor cells was used as a control substance.
(Tetrazolium assays rely on reduction of a dye to a coloured formazan, in cell work by metabolically active cells.)

Test [1] has as its system A375 melanoma tumor cells. Kind of test: Anti-proliferative effect on melanoma tumor cells (MTT reduction assay). In kind it is cell-based. As to the method: as §1, §2
Where [2] appears, read: Homo sapiens, A-375, A375 melanoma tumor cells.

Consider `Nc1cccc2c(Oc3cccc(NC(=O)Nc4ccc(Cl)c(C(F)(F)F)c4)c3)ccnc12` [Compound 1f, 1-[3-(8-aminoquinolin-4-yloxy)phenyl]-3-(4-chloro-3-trifluoromethylphenyl)urea], for which the GI50 was 10.4 µM in the test on HS27 fibroblasts and 2.56 µM in test [1] (setting [2]).

Turning to `CC(=O)Nc1cccc2c(Oc3cccc(NC(=O)c4ccc(Cl)c(C(F)(F)F)c4)c3)ccnc12` [Compound 1i, N-[3-(8-acetylaminoquinolin-4-yloxy)phenyl]-4-chloro-3-trifluoromethylbenzamide], the GI50 was greater than 20 µM with HS27 fibroblasts and 3.49 µM in test [1] (setting [2]).

For `CC(=O)Nc1cccc2c(Oc3ccc(NC(=O)c4ccc(Cl)c(C(F)(F)F)c4)cc3)ccnc12` [Compound 1d, N-[4-(8-acetylaminoquinolin-4-yloxy)phenyl]-4-chloro-3-trifluoromethylbenzamide], the figures for the GI50 (in the test with HS27 fibroblasts; in test [1] (setting [2])) were 5.47 µM and 3.14 µM, respectively.

As for `CC(=O)Nc1cccc2c(Oc3cc(NC(=O)c4cccc(C(F)(F)F)c4)ccc3C)ccnc12` [Compound 1l, N-[3-(8-acetylaminoquinolin-4-yloxy)-4-methylphenyl]-3-trifluoromethylbenzamide], the GI50 with HS27 fibroblasts is greater than 20 µM; in test [1] (setting [2]) it was 1.28 µM.

Turning to `CC(=O)Nc1cccc2c(Oc3cc(NC(=O)c4cc(C)on4)ccc3C)ccnc12` [Compound 1r, N-[3-(8-acetylaminoquinolin-4-yloxy)-4-methylphenyl]-5-methylisoxazole-3-carboxylic acid amide], the GI50 (with HS27 fibroblasts; in test [1] (setting [2])) was greater than 20 µM each time.

For the molecule `Nc1cccc2c(Oc3ccc(NC(=O)Nc4ccc(Cl)c(C(F)(F)F)c4)cc3)ccnc12` [Compound 1a, 1-[4-(8-aminoquinolin-4-yloxy)phenyl]-3-(4-chloro-3-trifluoromethylphenyl)urea], the GI50 in the test with HS27 fibroblasts worked out at 6.71 µM; in test [1] (setting [2]), 3.74 µM.

Regarding `O=C(Nc1cccc(Oc2ccnc3c(NC(=O)c4ccccc4)cccc23)c1)c1ccc(Cl)c(C(F)(F)F)c1` [Compound 1j, N-[3-(8-benzoylaminoquinolin-4-yloxy)phenyl]-4-chloro-3-trifluoromethylbenzamide], the GI50 in the test on HS27 fibroblasts was greater than 20 µM; in test [1] (A375 melanoma tumor cells) it was 0.78 µM; in test [1] (setting [2]), 0.77 to 0.8 µM.

Turning to `CC(=O)Nc1cccc2c(Oc3cccc(NC(=O)Nc4ccc(Cl)c(C(F)(F)F)c4)c3)ccnc12` [Compound 1h, 1-[3-(8-acetylaminoquinolin-4-yloxy)phenyl]-3-(4-chloro-3-trifluoromethylphenyl)urea], the GI50 in the test with HS27 fibroblasts was 5.68 µM; in test [1] (setting [2]), 2.32 µM.

As for `Nc1cccc2c(Oc3cccc(NC(=O)c4ccc(Cl)c(C(F)(F)F)c4)c3)ccnc12` [Compound 1g, N-[3-(8-aminoquinolin-4-yloxy)phenyl]-4-chloro-3-trifluoromethylbenzamide], the GI50 in the test on HS27 fibroblasts is greater than 20 µM; in test [1] (setting [2]), 6.73 µM.

With `CC(=O)Nc1cccc2c(Oc3cc(NC(=O)c4cc(-n5cnc(C)c5)cc(C(F)(F)F)c4)ccc3C)ccnc12` [Compound 1p, N-[3-(8-acetylaminoquinolin-4-yloxy)-4-methylphenyl]-3-(4-methylimidazol-1-yl)-5-trifluoromethylbenzamide], the GI50 (in the test on HS27 fibroblasts; in test [1] (setting [2])) was greater than 20 µM throughout.

In the case of `Cc1ccc(NC(=O)c2ccc(Cl)c(C(F)(F)F)c2)cc1Oc1ccnc2c(NC(=O)c3ccccc3)cccc12` [Compound 1s, N-[3-(8-benzoylaminoquinolin-4-yloxy)-4-methylphenyl]-4-chloro-3-trifluoromethylbenzamide], the values for the GI50 (in the test on HS27 fibroblasts; in test [1] (setting [2])) were greater than 20 µM and 1.03 µM, respectively.

Take `O=C(Nc1ccc(Oc2ccnc3c(NC(=O)c4ccccc4)cccc23)cc1)c1ccc(Cl)c(C(F)(F)F)c1` [Compound 1e, N-[4-(8-benzoylaminoquinolin-4-yloxy)phenyl]-4-chloro-3-trifluoromethylbenzamide]: the GI50 is greater than 20 µM in the test on HS27 fibroblasts, 0.8 µM in test [1] (A375 melanoma tumor cells) and 0.77 to 0.8 µM in test [1] (setting [2]).

In the case of `CC(=O)Nc1cccc2c(Oc3cc(NC(=O)c4cc(C(F)(F)F)cc(C(F)(F)F)c4)ccc3C)ccnc12` [Compound 1m, N-[3-(8-acetylaminoquinolin-4-yloxy)-4-methylphenyl]-3,5-bistrifluoromethylbenzamide], the values for the GI50 (in the test on HS27 fibroblasts; in test [1] (A375 melanoma tumor cells); in test [1] (setting [2])) were greater than 20 µM, 0.77 µM and 0.77 to 0.8 µM, respectively.

As for `CC(=O)Nc1cccc2c(Oc3cc(NC(=O)c4ccc(Cl)c(C(F)(F)F)c4)ccc3C)ccnc12` [Compound 1k, N-[3-(8-acetylaminoquinolin-4-yloxy)-4-methylphenyl]-4-chloro-3-trifluoromethylbenzamide], the GI50 in the test on HS27 fibroblasts is greater than 20 µM; in test [1] (setting [2]), 1.3 µM.

For `Nc1cccc2c(Oc3ccc(NC(=O)c4ccc(Cl)c(C(F)(F)F)c4)cc3)ccnc12` [Compound 1b, N-[4-(8-aminoquinolin-4-yloxy)phenyl]-4-chloro-3-trifluoromethylbenzamide], the GI50 came to 7.63 µM in the test on HS27 fibroblasts and 5.69 µM in test [1] (setting [2]).

With `CC(=O)Nc1cccc2c(Oc3cc(NC(=O)c4ccc([N+](=O)[O-])c(C(F)(F)F)c4)ccc3C)ccnc12` [Compound 1n, N-[3-(8-acetylaminoquinolin-4-yloxy)-4-methylphenyl]-4-nitro-3-trifluoromethylbenzamide], the GI50 with HS27 fibroblasts is greater than 20 µM; in test [1] (A375 melanoma tumor cells) it was 0.79 µM; in test [1] (setting [2]), 0.77 to 0.8 µM.

Turning to `CC(=O)Nc1cccc2c(Oc3ccc(NC(=O)Nc4ccc(Cl)c(C(F)(F)F)c4)cc3)ccnc12` [Compound 1c, 1-[4-(8-acetylaminoquinolin-4-yloxy)phenyl]-3-(4-chloro-3-trifluoro-methylphenyl)urea], the GI50 came to 6.02 µM in the test on HS27 fibroblasts and 4.19 µM in test [1] (setting [2]).

For the molecule `CNC(=O)c1cc(Oc2ccc(NC(=O)Nc3ccc(Cl)c(C(F)(F)F)c3)cc2)ccn1` [Sorafenib, reference compound], the GI50 was 7.85 µM in the test on HS27 fibroblasts and 5.58 µM in test [1] (setting [2]).

For the molecule `CC(=O)Nc1cccc2c(Oc3cc(NC(=O)c4ccccc4Cl)ccc3C)ccnc12` [Compound 1q, N-[3-(8-acetylaminoquinolin-4-yloxy)-4-methylphenyl]-2-chlorobenzamide], the GI50 in the test on HS27 fibroblasts is greater than 20 µM; in test [1] (setting [2]), 2.12 µM.

With `CC(=O)Nc1cccc2c(Oc3cc(NC(=O)c4cc(N5CCC(O)CC5)cc(C(F)(F)F)c4)ccc3C)ccnc12` [Compound 1o, N-[3-(8-acetylaminoquinolin-4-yloxy)-4-methylphenyl]-3-(4-hydroxypiperidin-1-yl)-5-trifluoromethylbenzamide], the 50% growth inhibitory concentration (GI50) (in the test with HS27 fibroblasts; in test [1] (setting [2])) was greater than 20 µM each time.
